Converted amounts (≈) assume the structure as drawn.
How the values were obtained:
Format in all cases: functional
[1] = system: Mycobacterium tuberculosis; test: Minimum inhibitory concentration against Mycobacterium tuberculosis resistant clinical isolates
[2] = system: Mycobacterium tuberculosis; test: Minimum inhibitory concentration against Mycobacterium tuberculosis resistant clinical isolates; Range: 8->16 ug/ml
[3] = system: Mycobacterium tuberculosis; test: Minimum inhibitory concentration against Mycobacterium tuberculosis resistant clinical isolates; Range:4-16 ug/ml
[4] = system: Mycobacterium tuberculosis; test: Minimum inhibitory concentration against Mycobacterium tuberculosis resistant clinical isolates; Range: 1-4 ug/ml

SMILES | MIC [1] | further results
CC1=C(OCCCCN2CCN(C)CC2)C(C)SC1=O (stereo not given) | > 16 µg/mL | –
CC1=C(OCCCCCCCCBr)C(C)SC1=O (stereo not given) | > 16 µg/mL | –
CC1=C(OCCCN2CCOCC2)C(C)SC1=O (stereo not given) | > 16 µg/mL | –
COC(=O)CSCCCCCOC1=C(C)C(=O)SC1C (stereo not given) | > 16 µg/mL | –
CC1=C(OCCCCCCN2CCOCC2)C(C)SC1=O (stereo not given) | > 16 µg/mL | –
CC1=C(OCCCCN2CCOCC2)C(C)SC1=O (stereo not given) | > 16 µg/mL | –
COC(=O)CSCCCCCCCCCCOC1=C(C)C(=O)SC1C (stereo not given) | > 16 µg/mL | –
NNC(=O)c1ccncc1 [ISONIAZID] | – | MIC [2]: > 16 µg/mL
COC(=O)CSCCCOC1=C(C)C(=O)SC1C (stereo not given) | > 16 µg/mL | –
CC1=C(OCCCCCCCCN2CCN(C)CC2)C(C)SC1=O (stereo not given) | > 16 µg/mL | –
CC1=C(OCCCCCCCCN2CCOCC2)C(C)SC1=O (stereo not given) | > 16 µg/mL | –
CC1=C(OCCCCCCBr)C(C)SC1=O (stereo not given) | > 16 µg/mL | –
CC1=C(OCCCBr)C(C)SC1=O (stereo not given) | > 16 µg/mL | –
COC(=O)CSCCCCOC1=C(C)C(=O)SC1C (stereo not given) | > 16 µg/mL | –
CC1=C(OCCCCCCCCCCN2CCOCC2)C(C)SC1=O (stereo not given) | > 16 µg/mL | –
CC1=C(OCCCCCCCCCCBr)C(C)SC1=O (stereo not given) | – | MIC [3]: 16 µg/mL (≈ 44 µM)
CC1=C(OCCCCCN2CCOCC2)C(C)SC1=O (stereo not given) | > 16 µg/mL | –
CC1=C(OCCCCBr)C(C)SC1=O (stereo not given) | > 16 µg/mL | –
CC1=C(OCCCCCN2CCN(C)CC2)C(C)SC1=O (stereo not given) | > 16 µg/mL | –
CC1=C(OCCCCCCCCCCN2CCN(C)CC2)C(C)SC1=O (stereo not given) | > 16 µg/mL | –
COC(=O)CSCCCCCCCCOC1=C(C)C(=O)SC1C (stereo not given) | – | MIC [4]: 4 µg/mL (≈ 11.1 µM)
CC1=C(OCCCCCBr)C(C)SC1=O (stereo not given) | > 16 µg/mL | –
CC1=C(OCCCN2CCN(C)CC2)C(C)SC1=O (stereo not given) | > 16 µg/mL | –
CC1=C(OCCCCCCN2CCN(C)CC2)C(C)SC1=O (stereo not given) | > 16 µg/mL | –
COC(=O)CSCCCCCCOC1=C(C)C(=O)SC1C (stereo not given) | > 16 µg/mL | –

From ChEMBL document CHEMBL1143512, “Antitubercular agents. Part 2: new thiolactomycin analogues active against Mycobacterium tuberculosis” (2005)
